{"source": "patent US8444953B2", "about": "“Symmetric and asymmetric halogen-containing metallocarboranylporphyrins and uses thereof” (Brookhaven Science Associates, LLC, priority 2007, dated 2013)", "key": {"[1]": {"assay": "Weight changes and hematologic parameters that indicate toxicity", "assay_type": "in vivo, mice", "settings": "for % Weight change / Granulocytes / Lymphocytes / Platelets: 220 mg/kg (43 mg B/kg), median (range)"}, "[2]": {"test_system": "BALB/c mice bearing subcutaneously implanted EMT-6 mammary carcinomas", "assay": "Biodistribution of porphyrin XV in mice bearing EMT-6 carcinomas (boron analyses of tissues)", "assay_type": "in vivo", "settings": "220 mg/kg (43 mg B/kg), 6 i.p. injections over 2 days, median (range), n = 5", "experimental": "Porphyrin compound (XV) was emulsified in 9% Cremophor EL and 18% propylene glycol in saline.\nTo prepare a solution of ˜3.7 mg/mL porphyrin in 9% Cremophor EL (CRM) and 18% propylene glycol (PRG), the porphyrin was dissolved in tetrahydrofuran (THF) (1.5% of the total volume) and then heated to 40° C. for 15 min. CRM (9% of total volume) was then added and the mixture was heated to 60° C., for 2 hours, which removed most of the THF. After cooling to room temperature, PRG (18% of total volume) was added, followed by slow dropwise addition of saline (71.5% of total volume) with rapid stirring. The solution was degassed by stirring under vacuum (˜30 mm Hg) for 30-60 min and then filtered (Millipore, 8 μm).\nBALB/c mice bearing subcutaneously implanted EMT-6 mammary carcinomas implanted on the dorsal thorax were given a total dose of 220 milligrams porphyrin compound XV per kilogram body weight (43 mg B/kg). At one and two days after the last injection, mice were euthanized, and tumor, blood, brain, and liver were removed for boron analyses. The blood was first analyzed for hematologic parameters that indicate toxicity before it was analyzed for boron."}, "[3]": {"settings": "mice, 1 day after last injection"}, "[4]": {"settings": "mice, 2 days after last injection"}}, "note": "Marks after values point to notes of the source that are not given here."}
{"substance": "Copper (II) 5,10,15-tris[3-o-carboranylmethoxyphenyl]-20-[2,6-difluorophenyl]porphyrin [Porphyrin XV]", "values": [{"measurement": "median % weight loss (in words)", "setting": "[1]; mice receiving porphyrin, 220 mg/kg", "result": "not significant"}, {"measurement": "% Weight change", "setting": "[1]; [3]", "result": "−0.6 (−3.4-3.3) %"}, {"measurement": "Granulocytes", "setting": "[1]; [3]", "result": "52 (49.8-65.1)"}, {"measurement": "Lymphocytes", "setting": "[1]; [3]", "result": "44.3 (31.8-46.5)^b"}, {"measurement": "Platelets", "setting": "[1]; [3]", "result": "374 (158-879)^a"}, {"measurement": "% Weight change", "setting": "[1]; [4]", "result": "−0.2 (−3.3-3.8) %"}, {"measurement": "Granulocytes", "setting": "[1]; [4]", "result": "54.0 (52.4-57.8)"}, {"measurement": "Lymphocytes", "setting": "[1]; [4]", "result": "42.6 (38.4-44.1)"}, {"measurement": "Platelets", "setting": "[1]; [4]", "result": "478 (91-661)^b"}, {"measurement": "toxicity (in words)", "setting": "[1]; mice, 220 mg/kg, weight and hematologic parameters", "result": "quite mild and transient"}, {"measurement": "Average boron concentration, Blood", "setting": "[2]; 1 day after last injection", "result": "47 (38-121) μg B/g"}, {"measurement": "Average boron concentration, Brain", "setting": "[2]; 1 day after last injection", "result": "1.0 (0.6-1.7) μg B/g"}, {"measurement": "Average boron concentration, EMT-6 Tumor", "setting": "[2]; 1 day after last injection", "result": "66 (24-153) μg B/g"}, {"measurement": "Average boron concentration, Liver", "setting": "[2]; 1 day after last injection", "result": "300 (245-319) μg B/g"}, {"measurement": "Average boron concentration, Skin (pinna)", "setting": "[2]; 1 day after last injection", "result": "5.9 (4.9-9.9) μg B/g"}, {"measurement": "Average boron concentration, Blood", "setting": "[2]; 2 days after last injection", "result": "0.4 (0.3-4.5) μg B/g"}, {"measurement": "Average boron concentration, Brain", "setting": "[2]; 2 days after last injection", "result": "0.1 (0-0.2) μg B/g"}, {"measurement": "Average boron concentration, EMT-6 Tumor", "setting": "[2]; 2 days after last injection", "result": "88 (44-115) μg B/g"}, {"measurement": "Average boron concentration, Liver", "setting": "[2]; 2 days after last injection", "result": "375 (364-419) μg B/g"}, {"measurement": "Average boron concentration, Skin (pinna)", "setting": "[2]; 2 days after last injection", "result": "6.6 (3.6-8.1) μg B/g"}]}
